From PMC12067350, “Discovery of Thieno[3,2‑b]pyridine-5-carboxamide and 2,3-Difluorobenzamide Negative Allosteric Modulators of Metabotropic Glutamate Receptor Subtype 5” (ACS Medicinal Chemistry Letters, 2025)

How the values were obtained:
Format in all cases: in vitro ADME
[1] = Binding in plasma from human (equilibrium dialysis); details: fraction unbound
Method: (§1) Binding in plasma from rat and human.
Determination of compounds’ fraction unbound (f u) in plasma from rat and human was conducted in vitro via equilibrium dialysis using HTDialysis membrane plates. Dialysis membranes (four paired strips per HTD assay) were hydrated as described by the manufacturer and inserted into the HTD plate, which was assembled and prepared for sample addition by the dispensing of blank buffer (DPBS, 100 µL/well) into the ‘top half’ of each membrane-split well. Each compound was diluted into plasma from each species (5 µM final concentration), which was aliquoted in triplicate to the ‘bottom half’ of the prepared HTD plate wells. The HTD plate was sealed and incubated for 6 hours at 37 °C. Following incubation, each well (both top and bottom halves) were transferred (20 µL) to the corresponding wells of a 96-shallow-well (V-bottom) plate. The daughter plates were then matrix-matched (buffer side wells received equal volume of plasma, and plasma side wells received equal volume of buffer), and extraction solution (120 µL; acetonitrile containing 50 nM carbamazepine as IS) was added to all wells of both daughter plates to precipitate protein and extract test article. The plates were then sealed and centrifuged (3500 rcf) for 10 minutes at ambient temperature. Supernatant (60 µL) from each well of the daughter plates was then transferred to the corresponding wells of new daughter plates (96-shallow-well, V bottom) containing water (Milli-Q, 60 µL/well), and the plates were sealed in preparation for LC-MS/MS analysis (see below). fu was calculated as (analyte to IS MS peak area ratio from Trans-buffer side) / (analyte to IS MS peak area ratio from Cis-plasma side). Mean values for each species were calculated from 3 replicates. […]
(§2) Mean values for each species were calculated from 3 replicates.

CYP2C9 = molecular target: T1, CYP2C9 (Homo sapiens, UniProt P11712); assay: Cytochrome P450 inhibition using human liver microsomes, CYP2C9; details: read-out: CYP 450 IC50, 2C9
T1 construct: from tissue; host or cells: human liver microsomes
T1 sequence (P11712 whole entry): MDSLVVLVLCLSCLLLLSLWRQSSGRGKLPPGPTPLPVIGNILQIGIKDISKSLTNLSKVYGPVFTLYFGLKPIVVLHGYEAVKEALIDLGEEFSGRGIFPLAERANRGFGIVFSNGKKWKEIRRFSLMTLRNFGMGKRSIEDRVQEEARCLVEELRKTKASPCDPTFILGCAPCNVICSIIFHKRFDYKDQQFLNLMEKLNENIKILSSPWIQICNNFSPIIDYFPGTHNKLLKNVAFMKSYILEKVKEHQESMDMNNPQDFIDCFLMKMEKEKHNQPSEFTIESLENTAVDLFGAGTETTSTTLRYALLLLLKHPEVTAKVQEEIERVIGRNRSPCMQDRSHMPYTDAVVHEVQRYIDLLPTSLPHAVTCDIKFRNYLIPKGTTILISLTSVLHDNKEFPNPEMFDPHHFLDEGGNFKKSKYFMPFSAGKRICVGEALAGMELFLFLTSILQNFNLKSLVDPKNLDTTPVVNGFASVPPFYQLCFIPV

[2] = Intrinsic clearance in human liver microsomes; details: for CLint scaled at 0.75 h, 1 µM: pH 7.4, human liver microsomes; for CLhep, human: predicted hepatic clearance from human microsomes
[3] = Binding in brain homogenate from rat (equilibrium dialysis); details: fraction unbound, rat brain homogenates
Method: as §1
Determination of compounds’ fraction unbound (f u) in plasma from rat and human was conducted in vitro via equilibrium dialysis using HTDialysis membrane plates. Dialysis membranes (four paired strips per HTD assay) were hydrated as described by the manufacturer and inserted into the HTD plate, which was assembled and prepared for sample addition by the dispensing of blank buffer (DPBS, 100 µL/well) into the ‘top half’ of each membrane-split well. Each compound was diluted into plasma from each species (5 µM final concentration), which was aliquoted in triplicate to the ‘bottom half’ of the prepared HTD plate wells. […] Supernatant (60 µL) from each well of the daughter plates was then transferred to the corresponding wells of new daughter plates (96-shallow-well, V bottom) containing water (Milli-Q, 60 µL/well), and the plates were sealed in preparation for LC-MS/MS analysis (see below). fu was calculated as (analyte to IS MS peak area ratio from Trans-buffer side) / (analyte to IS MS peak area ratio from Cis-plasma side). Mean values for each species were calculated from 3 replicates. […]
The diluted fraction unbound (f u2) in brain was calculated as (analyte to IS MS peak area ratio from Trans-buffer side) / (analyte to IS MS peak area ratio from Cis-brain homogenate side). […]
as §2

human f u,plasma [1] | IC50 (CYP2C9) | CLint scaled at 0.75 h, 1 µM [2] | CLhep, human [2] | Rat f u,brain [3] | SMILES
0.020 | > 30 µM | 140 mL/min/kg | 18.3 mL/min/kg | 0.009 | Cc1csc(NC(=O)c2cc(O[C@@H]3CCOC3)c3sccc3n2)n1 [19aA]
0.069 | > 30 µM | 241 mL/min/kg | 19.3 mL/min/kg | 0.051 | Cc1csc(NC(=O)c2cc(O[C@@H]3CCOC3)cc(F)c2F)n1 [27cA]
